Assay: recombinant barcode read abundance after kanamycin selection (control-corrected) (log10(CPM+1)); higher = more efficient recombination; sequences stand for … in AGTGCAGAGAAAATCGGCCAGTTTTCTCTGCCTGCAGTCCGCATGCCGT…AGATTTATGCAGCGGACTGCCTTTCTCCCAAAGTGATAAACCGGACAGTATCATGGACCGGTTTTCCCGGTAATCCGTATTTGCAAGGTTGGTTTCACT; site = the 11-nt target
Experimental: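 Pooled E. coli target-specificity screen for the IS621 bridge recombinase. Each library plasmid pairs an 11-nt target (CT core) with a bridge RNA whose target-binding loop (9-nt LTG + 4-nt RTG) is reprogrammed; the rest of the 177-nt WT IS621 bridge RNA scaffold is fixed. The plasmid is co-electroporated with a WT donor plasmid; recombinase is induced with 0.1 mM IPTG and recombinants are selected on kanamycin. Recombinant barcodes are sequenced, converted to CPM, averaged over two biological replicates and corrected by the unselected control CPM. Molecule = full bridge RNA written as DNA: LTG = specificity nt 1-9, RTG = reverse complement of specificity nt 8-11, in the WT scaffold.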
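Note: IS621 recombinase and bridge RNA in Escherichia coli cells.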

| Sequence | recombinant barcode read abundance (log10) |
| --- | --- |
| ACGGCTTCTTGGGTTCTAACCTGTTGCTA (site ACGGCTTCTTA) | 0.494 |
| ACGGCTTCTTGGGTTCTAACCTGTTGCTA (site AGGGCTTCTTA) | 0.485 |
| ACGGGTGCTTGGGTTCTAACCTGTTGCCT (site ACGGGTGCTAG) | 1.86 |
| ACGGGTGCTTGGGTTCTAACCTGTTGCCT (site ACGGTTGCTAG) | 0.103 |
| ACGTCACCTTGGGTTCTAACCTGTTGCCT (site ACGTCACCTAG) | 0.536 |
| ACGTCACCTTGGGTTCTAACCTGTTGCCT (site CCGTCACCTAG) | 0.0656 |
| ACGTCACCTTGGGTTCTAACCTGTTGCCT (site GCGTCACCTAG) | 0.221 |
| ACGTCACCTTGGGTTCTAACCTGTTGCCT (site TCGTCACCTAG) | 0.17 |
| ACGTGGACTTGGGTTCTAACCTGTTGCTA (site ACGTGGACTTA) | 1.06 |
| ACGTGGACTTGGGTTCTAACCTGTTGCTA (site GACAATGCTAT) | 0.181 |
| ACTAAACCTTGGGTTCTAACCTGTTGCCT (site ACTAAACCTAG) | 0.866 |
| ACTAAACCTTGGGTTCTAACCTGTTGCCT (site GCTAACCCTAG) | 0.246 |
| ACTAATCCTTGGGTTCTAACCTGTTGCTT (site ACTAATCCTAA) | 0.236 |
| ACTAATCCTTGGGTTCTAACCTGTTGCTT (site CCTAATACTAA) | 0.105 |
| ACTAGGACTTGGGTTCTAACCTGTTGCGA (site ACTAGGACTAC) | 0.0787 |
| ACTAGGACTTGGGTTCTAACCTGTTGCGA (site ACTAGGACTCC) | 1.43 |
| ACTAGGACTTGGGTTCTAACCTGTTGCGA (site ACTAGGACTGC) | 0.0331 |
| ACTAGGACTTGGGTTCTAACCTGTTGCGA (site ACTAGGACTTC) | 2.27 |
| ACTAGGTCTTGGGTTCTAACCTGTTGCTA (site ACTAGCTCTTA) | 0.0718 |
| ACTAGGTCTTGGGTTCTAACCTGTTGCTA (site ACTAGGTCTTA) | 1.04 |
| ACTAGTCCTTGGGTTCTAACCTGTTGCCT (site ACTAGTCCTAA) | 0.233 |
| ACTAGTCCTTGGGTTCTAACCTGTTGCCT (site ACTAGTCCTAC) | 0.649 |

| Sequence | recombinant barcode read abundance (log10) |
| --- | --- |
| ACTAGTCCTTGGGTTCTAACCTGTTGCCT (site ACTAGTCCTAG) | 0.337 |
| ACTAGTCCTTGGGTTCTAACCTGTTGCCT (site ACTAGTCCTAT) | 0.0393 |
| ACTAGTGCTTGGGTTCTAACCTGTTGCCT (site AATAGTGCTAG) | 0.111 |
| ACTAGTGCTTGGGTTCTAACCTGTTGCCT (site ACTAGTGCTAG) | 0.117 |
| ACTAGTGCTTGGGTTCTAACCTGTTGCCT (site AGTAGTGCTAG) | 0.0194 |
| ACTAGTGCTTGGGTTCTAACCTGTTGCCT (site ATTAGTGCTAG) | 0.0112 |
| ACTCACTCTTGGGTTCTAACCTGTTGCCT (site ACTCACTCTAG) | 2.04 |
| ACTCACTCTTGGGTTCTAACCTGTTGCCT (site CGATCTCCTGT) | 0.0794 |
| ACTCGGCCTTGGGTTCTAACCTGTTGCGA (site ACTCGGCCTTC) | 2.11 |
| ACTCGGCCTTGGGTTCTAACCTGTTGCGA (site ACTGGGCCTTC) | 0.172 |
| ACTCGGCCTTGGGTTCTAACCTGTTGCGT (site ACTCGGCCTAC) | 2.56 |
| ACTCGGCCTTGGGTTCTAACCTGTTGCGT (site ACTCGGCCTAG) | 0.0703 |
| ACTCTAACTTGGGTTCTAACCTGTTGCTT (site ACTATAACTAA) | 0.154 |
| ACTCTAACTTGGGTTCTAACCTGTTGCTT (site ACTCTAACTAA) | 0.121 |
| ACTCTAACTTGGGTTCTAACCTGTTGCTT (site ACTGTAACTAA) | 0.0269 |
| ACTCTAACTTGGGTTCTAACCTGTTGCTT (site ACTTTAACTAA) | 0.0201 |
| ACTGGTTCTTGGGTTCTAACCTGTTGCCG (site ACTGGTTCTCG) | 0.696 |
| ACTGGTTCTTGGGTTCTAACCTGTTGCCG (site TACTCACCTAA) | 0.0451 |
| ACTGTCACTTGGGTTCTAACCTGTTGCGG (site ACTGTCACTCC) | 3.28 |
| ACTGTCACTTGGGTTCTAACCTGTTGCGG (site GTGTATTCTAG) | 0.046 |
| ACTTAGACTTGGGTTCTAACCTGTTGCCT (site ACTTAGACTAG) | 1.02 |
| ACTTAGACTTGGGTTCTAACCTGTTGCCT (site ACTTAGACTCG) | 0.313 |

| Sequence | recombinant barcode read abundance (log10) |
| --- | --- |
| ACTTAGACTTGGGTTCTAACCTGTTGCCT (site ACTTAGACTGG) | 0.258 |
| ACTTAGACTTGGGTTCTAACCTGTTGCCT (site ACTTAGACTTG) | 0 |
| ACTTAGACTTGGGTTCTAACCTGTTGCGG (site ACTTAGACTCC) | 2.56 |
| ACTTAGACTTGGGTTCTAACCTGTTGCGG (site TCTTAGACTCC) | 0.416 |
| ACTTAGCCTTGGGTTCTAACCTGTTGCCT (site ACTTAGCCTAG) | 1.33 |
| ACTTAGCCTTGGGTTCTAACCTGTTGCCT (site ACTTAGCCTAT) | 0.0989 |
| ACTTCCACTTGGGTTCTAACCTGTTGCCT (site ACTTCCACTAG) | 0.613 |
| ACTTCCACTTGGGTTCTAACCTGTTGCCT (site CCTTCCACTAG) | 0.0483 |
| ACTTCCACTTGGGTTCTAACCTGTTGCCT (site GCTTCCACTAG) | 0.0573 |
| ACTTCCACTTGGGTTCTAACCTGTTGCCT (site TCTTCCACTAG) | 0.111 |
| ACTTCTACTTGGGTTCTAACCTGTTGCTA (site ACATCTACTTA) | 0.141 |
| ACTTCTACTTGGGTTCTAACCTGTTGCTA (site ACTTCTACTTA) | 0.0751 |
| ACTTGAACTTGGGTTCTAACCTGTTGCCT (site ACATGAACTAG) | 0.419 |
| ACTTGAACTTGGGTTCTAACCTGTTGCCT (site ACCTGAACTAG) | 0.0239 |
| ACTTGAACTTGGGTTCTAACCTGTTGCCT (site ACGTGAACTAG) | 0.146 |
| ACTTGAACTTGGGTTCTAACCTGTTGCCT (site ACTTGAACTAG) | 0.383 |
| ACTTGAACTTGGGTTCTAACCTGTTGCTT (site ACTTGAACTAA) | 0.0959 |
| ACTTGAACTTGGGTTCTAACCTGTTGCTT (site ACTTTAGCTAA) | 0.0785 |
| ACTTGAGCTTGGGTTCTAACCTGTTGCAT (site ACTTGAGCTAT) | 1.36 |
| ACTTGAGCTTGGGTTCTAACCTGTTGCAT (site TAGACTCCTTG) | 0.232 |
| ACTTTAACTTGGGTTCTAACCTGTTGCTT (site ACTATAACTAA) | 0.185 |
| ACTTTAACTTGGGTTCTAACCTGTTGCTT (site ACTCTAACTAA) | 0.229 |

Source: the supplement of paper PMC11208160
